Test results: article PMC6273209, “Evaluation of the Enantiomer Specific Biokinetics and Radiation Doses of [^18F]Fluspidine—A New Tracer in Clinical Translation for Imaging of σ1 Receptors” (Molecules, 2016)

Columns and labels:
[1] = Human dosimetry estimation from ex vivo biodistribution (organ harvesting method); assay type: in vivo, CD-1 mice; conditions: for OD Adrenals / OD Brain / OD Breasts / OD Gallbladder Wall / OD Heart Wall / OD Kidneys / OD LLI Wall / OD Liver / OD Lungs / OD Muscle / OD Osteogenic Cells / OD Ovaries / OD Pancreas / OD Red Marrow / OD Skin / OD Small Intestine / OD Spleen / OD Stomach Wall / OD Testes / OD Thymus / OD Thyroid / OD Total Body / OD ULI Wall / OD Urinary Bladder Wall / OD Uterus / ED Contr. Adrenals / ED Contr. Brain / ED Contr. Breasts / ED Contr. Gallbladder Wall / ED Contr. Heart Wall / ED Contr. Kidneys / ED Contr. LLI Wall / ED Contr. Liver / ED Contr. Lungs / ED Contr. Muscle / ED Contr. Osteogenic Cells / ED Contr. Ovaries / ED Contr. Pancreas / ED Contr. Red Marrow / ED Contr. Skin / ED Contr. Small Intestine / ED Contr. Spleen / ED Contr. Stomach Wall / ED Contr. Thymus / ED Contr. Thyroid / ED Contr. ULI Wall / ED Contr. Urinary Bladder Wall / ED Contr. Uterus: mouse organ harvesting; for OD Adrenals / OD Brain / OD Breasts / OD Gallbladder Wall / OD Heart Wall / OD Kidneys / OD LLI Wall / OD Liver / OD Lungs / OD Muscle / OD Osteogenic Cells / OD Ovaries / OD Pancreas / OD Red Marrow / OD Skin / OD Small Intestine / OD Spleen / OD Stomach Wall / OD Testes / OD Thymus / OD Thyroid / OD Total Body / OD ULI Wall / OD Urinary Bladder Wall / OD Uterus: scaled to human adult male model; for ED Contr. Adrenals / ED Contr. Brain / ED Contr. Breasts / ED Contr. Gallbladder Wall / ED Contr. Heart Wall / ED Contr. Kidneys / ED Contr. LLI Wall / ED Contr. Liver / ED Contr. Lungs / ED Contr. Muscle / ED Contr. Osteogenic Cells / ED Contr. Ovaries / ED Contr. Pancreas / ED Contr. Red Marrow / ED Contr. Skin / ED Contr. Small Intestine / ED Contr. Spleen / ED Contr. Stomach Wall / ED Contr. Thymus / ED Contr. Thyroid / ED Contr. ULI Wall / ED Contr. Urinary Bladder Wall / ED Contr. Uterus / ED ICRP 60 / ED: scaled to human; for ED Contr. Adrenals / ED Contr. Brain / ED Contr. Breasts / ED Contr. Gallbladder Wall / ED Contr. Heart Wall / ED Contr. Kidneys / ED Contr. LLI Wall / ED Contr. Liver / ED Contr. Lungs / ED Contr. Muscle / ED Contr. Osteogenic Cells / ED Contr. Ovaries / ED Contr. Pancreas / ED Contr. Red Marrow / ED Contr. Skin / ED Contr. Small Intestine / ED Contr. Spleen / ED Contr. Stomach Wall / ED Contr. Thymus / ED Contr. Thyroid / ED Contr. ULI Wall / ED Contr. Urinary Bladder Wall / ED Contr. Uterus / ED: ICRP 103 weighting; for ED ICRP 60 / ED: mouse, harvesting; for ED ICRP 60: ICRP 60 weighting
Method: Female CD-1 mice (age: 12 weeks) received an intravenous injection of (R)-(+)-[^18F]fluspidine (0.35 ± 0.08 MBq; weight: 29.8 ± 2.2 g; n = 28) or (S)-(−)-[^18F]fluspidine (0.39 ± 0.05 MBq; weight: 29.3 ± 1.9 g; n = 22). Two to three animals per time point were sacrificed by cervical dislocation at 5, 15, 30, 45, 60, 90, 120, 180, and 240 min. p.i. The brain, heart, lung, stomach, small intestine (SI), large intestine (LI), liver, kidneys, urinary bladder (UB), spleen, thymus, pancreas, adrenals, and ovaries were dissected, weighed, and the accumulated activity quantified in a gamma-counter (WIZARD Automatic Gamma Counter, PerkinElmer, Waltham, MA, USA) to determine the percentage injected activity (dose) per gram of tissue (%ID/g).
In addition, the sampling time p.i. and %ID/g values were scaled proportionately to human magnitude (please see Equations (1) and (2) in Section 4.4) prior to dose estimation with OLINDA/EXM (Vanderbilt University, Nashville, TN, USA, version 1.0).
For human dosimetry estimation from animal biodistribution and PET/MR imaging, animal organ masses and time scale was extrapolated to human magnitudes. At first, the organ-specific animal %ID data were extrapolated to the human scale with the equation (1) %ID/organhuman=%ID/gmouse · morganhuman · mmouse/mhuman with the fraction of the injected activity in the corresponding human organ = %ID/organhuman , the fraction of injected activity per gram animal organ tissue = %ID/gmouse and morganhuman the mass of the corresponding human organ. At second, a time scale extrapolation is needed due to differences in the metabolic rate using the equation (2) thuman=tmouse{mhuman/mmouse}^0.25 including the human time scale = thuman , the animal time scale = tmouse and the ratio of animal and human body weights = mmouse/mhuman .
The human dosimetry estimation was performed with the data extrapolated as well as the genuine human data using OLINDA/EXM software. The time-activity curves were estimated by exponential fitting and calculating the time integral, which equals the number of disintegrations (NODs) per organ during the observation period normalized to 1 Becquerel administered activity dose. […] Therefore, activity data of the urinary bladder was derived from the image for each time point. In contrast, for humans the activity concentration data of the urinary bladder was obtained in a more direct approach. At first, the activity and volume of urine was determined in the last frame of the PET scan before each micturition. Afterwards, the voided urine was collected, weighed, and the activity of three aliquots (assuming 1 mL = 1 g) determined with a gamma counter, and the activity of the whole sample estimated. The difference between imaged and sampled urine activity is equal to the residue of radioactive urine in the urinary bladder. To calculate the NOD in the human urinary bladder, the time-activity curve is integrated using a trapezoidal equation (3) %ID˜UB=1/2∑i=1n−1(%IDi+%IDi+1)(ti+1−ti) with the fraction of injected activity %IDi at the time ti and the cumulated activity of the urinary bladder i.e., the NOD %ID˜UB .
Furthermore, the NODs of the gastric system were calculated following the ICRP GI model (ICRP 30) as implemented in OLINDA 1.0. The NODs obtained either from the EXM module or the trapezoidal equation were transferred to OLINDA. The OD for the chosen hermaphroditic adult male phantom is estimated following the MIRD scheme. The S values are pre-calculated and implemented for the respective phantom in OLINDA. Subsequently, the ED contribution from each organ is calculated by multiplying the ODs with the respective tissue weighting factors as published by the International Commission on Radiological Protection (ICRP 103 [27]) for each organ. […]

[2] = test system: σ1 receptors; design: method as in PMID 25071097; conditions: σ1-rich areas of the porcine brain; cited from earlier work

What does the source list for `FCC[C@@H]1OC2(CCN(Cc3ccccc3)CC2)c2ccccc21` [(S)-(−)-[^18F]fluspidine]?
OD Adrenals [1]: 36.0 μSv/MBq; OD Brain [1]: 12.4 μSv/MBq; OD Breasts [1]: 11.2 μSv/MBq; OD Gallbladder Wall [1]: 15.5 μSv/MBq; OD Heart Wall [1]: 17.9 μSv/MBq; OD Kidneys [1]: 35.6 μSv/MBq; OD LLI Wall [1]: 19.0 μSv/MBq; OD Liver [1]: 12.5 μSv/MBq; OD Lungs [1]: 30.5 μSv/MBq; OD Muscle [1]: 7.2 μSv/MBq; OD Osteogenic Cells [1]: 19.6 μSv/MBq; OD Ovaries [1]: 17.0 μSv/MBq; OD Pancreas [1]: 26.2 μSv/MBq; OD Red Marrow [1]: 13.6 μSv/MBq; OD Skin [1]: 9.1 μSv/MBq; OD Small Intestine [1]: 31.9 μSv/MBq; OD Spleen [1]: 17.6 μSv/MBq; OD Stomach Wall [1]: 14.8 μSv/MBq; OD Testes [1]: 11.2 μSv/MBq; OD Thymus [1]: 12.0 μSv/MBq; OD Thyroid [1]: 11.7 μSv/MBq; OD Total Body [1]: 12.5 μSv/MBq; OD ULI Wall [1]: 33.3 μSv/MBq; OD Urinary Bladder Wall [1]: 13.9 μSv/MBq; OD Uterus [1]: 15.9 μSv/MBq; ED Contr. Adrenals [1]: 0.3 μSv/MBq; ED Contr. Brain [1]: 0.1 μSv/MBq; ED Contr. Breasts [1]: 1.3 μSv/MBq; ED Contr. Gallbladder Wall [1]: 0.1 μSv/MBq; ED Contr. Heart Wall [1]: 0.2 μSv/MBq; ED Contr. Kidneys [1]: 0.3 μSv/MBq; ED Contr. LLI Wall [1]: 1.1 μSv/MBq; ED Contr. Liver [1]: 0.5 μSv/MBq; ED Contr. Lungs [1]: 3.7 μSv/MBq; ED Contr. Muscle [1]: 0.1 μSv/MBq; ED Contr. Osteogenic Cells [1]: 0.2 μSv/MBq; ED Contr. Ovaries [1]: 1.4 μSv/MBq; ED Contr. Pancreas [1]: 0.2 μSv/MBq; ED Contr. Red Marrow [1]: 1.6 μSv/MBq; ED Contr. Skin [1]: 0.1 μSv/MBq; ED Contr. Small Intestine [1]: 0.3 μSv/MBq; ED Contr. Spleen [1]: 0.2 μSv/MBq; ED Contr. Stomach Wall [1]: 1.8 μSv/MBq; ED Contr. Thymus [1]: 0.1 μSv/MBq; ED Contr. Thyroid [1]: 0.5 μSv/MBq; ED Contr. ULI Wall [1]: 2.0 μSv/MBq; ED Contr. Urinary Bladder Wall [1]: 0.6 μSv/MBq; ED Contr. Uterus [1]: 0.1 μSv/MBq; ED ICRP 60 [1]: 17.3 μSv/MBq; ED [1]: 16.7 μSv/MBq; ED ([1]; listed as (S)-(−)-[^18F]Fluspidine): 16.7 μSv/MBq

For `[18F]CC[C@H]1OC2(CCN(Cc3ccccc3)CC2)c2ccccc21` [(R)-(+)-[^18F]fluspidine], which “OD Adrenals” value [1] is on record?
The value was 18.6 μSv/MBq.

And the “OD Brain” value [1]?
The value was 12.6 μSv/MBq.

And the “OD Breasts” value [1]?
The value was 11.3 μSv/MBq.

And the “OD Gallbladder Wall” value [1]?
Its value is 14.0 μSv/MBq.

And the “OD Heart Wall” value [1]?
The value was 22.3 μSv/MBq.

And the “OD Kidneys” value [1]?
The value was 27.6 μSv/MBq.

What about the “OD LLI Wall” value [1] of the same molecule?
The value was 16.4 μSv/MBq.

What about the “OD Liver” value [1] of the same molecule?
Its value is 10.3 μSv/MBq.

What about the “OD Lungs” value [1] of the same molecule?
The value was 45.5 μSv/MBq.

What about the “OD Muscle” value [1] of the same molecule?
The value was 7.1 μSv/MBq.

And the “OD Osteogenic Cells” value [1]?
Its value is 19.1 μSv/MBq.

And the “OD Ovaries” value [1]?
The value was 24.9 μSv/MBq.

And the “OD Pancreas” value [1]?
The value was 21.7 μSv/MBq.

What about the “OD Red Marrow” value [1] of the same molecule?
Its value is 13.5 μSv/MBq.

And the “OD Skin” value [1]?
The value was 8.7 μSv/MBq.

And the “OD Small Intestine” value [1]?
The value was 25.1 μSv/MBq.

And the “OD Spleen” value [1]?
The value was 17.2 μSv/MBq.

What about the “OD Stomach Wall” value [1] of the same molecule?
Its value is 14.3 μSv/MBq.

And the “OD Testes” value [1]?
The value was 10.8 μSv/MBq.

And the “OD Thymus” value [1]?
The value was 19.3 μSv/MBq.

And the “OD Thyroid” value [1]?
Its value is 11.5 μSv/MBq.

What about the “OD Total Body” value [1] of the same molecule?
The value was 12.2 μSv/MBq.

What about the “OD ULI Wall” value [1] of the same molecule?
Its value is 25.6 μSv/MBq.

What about the “OD Urinary Bladder Wall” value [1] of the same molecule?
Its value is 20.2 μSv/MBq.

What about the “OD Uterus” value [1] of the same molecule?
Its value is 14.9 μSv/MBq.

And the “ED Contr. Adrenals” value [1]?
The value was 0.2 μSv/MBq.

And the “ED Contr. Brain” value [1]?
The value was 0.1 μSv/MBq.

And the “ED Contr. Breasts” value [1]?
The value was 1.4 μSv/MBq.

And the “ED Contr. Gallbladder Wall” value [1]?
The value was 0.1 μSv/MBq.

And the “ED Contr. Heart Wall” value [1]?
The value was 0.2 μSv/MBq.

What about the “ED Contr. Kidneys” value [1] of the same molecule?
The value was 0.2 μSv/MBq.

And the “ED Contr. LLI Wall” value [1]?
The value was 1.0 μSv/MBq.

And the “ED Contr. Liver” value [1]?
The value was 0.4 μSv/MBq.

What about the “ED Contr. Lungs” value [1] of the same molecule?
The value was 5.5 μSv/MBq.

And the “ED Contr. Muscle” value [1]?
The value was 0.1 μSv/MBq.

What about the “ED Contr. Osteogenic Cells” value [1] of the same molecule?
The value was 0.2 μSv/MBq.

What about the “ED Contr. Ovaries” value [1] of the same molecule?
The value was 2.0 μSv/MBq.

What about the “ED Contr. Pancreas” value [1] of the same molecule?
The value was 0.2 μSv/MBq.

What about the “ED Contr. Red Marrow” value [1] of the same molecule?
The value was 1.6 μSv/MBq.

And the “ED Contr. Skin” value [1]?
The value was 0.1 μSv/MBq.

And the “ED Contr. Small Intestine” value [1]?
Its value is 0.2 μSv/MBq.

What about the “ED Contr. Spleen” value [1] of the same molecule?
Its value is 0.1 μSv/MBq.

And the “ED Contr. Stomach Wall” value [1]?
Its value is 1.7 μSv/MBq.

What about the “ED Contr. Thymus” value [1] of the same molecule?
The value was 0.2 μSv/MBq.

And the “ED Contr. Thyroid” value [1]?
Its value is 0.5 μSv/MBq.

What about the “ED Contr. ULI Wall” value [1] of the same molecule?
The value was 1.5 μSv/MBq.

What about the “ED Contr. Urinary Bladder Wall” value [1] of the same molecule?
The value was 0.8 μSv/MBq.

And the “ED Contr. Uterus” value [1]?
The value was 0.1 μSv/MBq.

And the “ED ICRP 60” value [1]?
Its value is 20.1 μSv/MBq.

And the ED [1]?
Its ED is 18.4 μSv/MBq.

What about the “binding potential (BPnd), fold higher in comparison to (S)-(−)-[^18F]fluspidine” value [2] of the same molecule?
The value was 5- to 10 fold.
